Values of other authors, collected in patent US7455864B2, “Melatonin-based composition for improved sleep” (Iomedix Development International Srl, priority 2007, dated 2008).

How the values were obtained:
[1] = test system: humans; conditions: melatonin supplementation in humans
[2] = test system: humans; conditions: melatonin supplementation in humans; remark: listed apart in the source
[3] = test system: humans; conditions: transdermal absorption

Row | SMILES | treatment of jet lag [1] | onset of sleep [2] | blood pressure [3] | skin temperature [3]
1 | COc1ccc2[nH]cc(CCNC(C)=O)c2c1 [Melatonin] | efficacious for treating jet lag | hastening the onset of sleep | – | –
2 | C=CC(C)(O)CCC=C(C)C (stereo not shown) [linalool] | – | – | reduce | reduce
